Results from ChEMBL document CHEMBL5244205, “Discovery of tricyclic dipyrrolopyridine derivatives as novel JAK inhibitors” (Bioorg Med Chem, 2017).
One block for each compound: values may come before it.

What was measured:
[1] = target: Rho-associated protein kinase 1 (Homo sapiens) (UniProt Q13464); test: Inhibition of ROCK1 (unknown origin) at 1000 nM relative to control
[2] = target: Tyrosine-protein kinase Lck (Homo sapiens) (UniProt P06239); test: Inhibition of LCK (unknown origin) at 1000 nM relative to control
[3] = target: Protein kinase C alpha type (Homo sapiens) (UniProt P17252); test: Inhibition of PKCalpha (unknown origin) at 1000 nM relative to control
CYP3A4 = CYP3A4 (Homo sapiens, UniProt P08684); test: in vitro; details: liver microsomes, probe midazolam, TDI
[4] = Oral availability in Sprague-Dawley rat at 1 mg/kg measured up to 24 hrs by LC-MS/MS analysis; format: ADME, organism-based; details: in vivo
[5] = AUC (0 to 24 hrs) in Sprague-Dawley rat at 1 mg/kg, iv measured up to 24 hrs by LC-MS/MS analysis; format: ADME, organism-based; design: dose 1 mg/kg, time < 24 hrs, route iv; details: in vivo
[6] = Volume of distribution in Sprague-Dawley rat at 1 mg/kg, iv measured up to 24 hrs by LC-MS/MS analysis; format: ADME, organism-based; details: in vivo
[7] = Half life in Sprague-Dawley rat at 1 mg/kg, po measured up to 24 hrs by LC-MS/MS analysis; format: ADME, organism-based; details: in vivo
[8] = Cmax in Sprague-Dawley rat at 1 mg/kg, po measured up to 24 hrs by LC-MS/MS analysis; format: ADME, organism-based; design: time < 24 hrs, dose 1 mg/kg, route po; details: in vivo
[9] = Half life in Sprague-Dawley rat at 1 mg/kg, iv measured up to 24 hrs by LC-MS/MS analysis; format: ADME, organism-based; details: in vivo
in vitro = details: PAMPA, pH 6.5, permeability
Description: (§1) Permeability of the compound in pH 6.5 incubated for 2 hrs by PAMPA based HPLC analysis

[10] = Tmax in Sprague-Dawley rat at 1 mg/kg, po measured up to 24 hrs by LC-MS/MS analysis; format: ADME, organism-based; details: in vivo
[11] = AUC (0 to 24 hrs) in Sprague-Dawley rat at 1 mg/kg, po measured up to 24 hrs by LC-MS/MS analysis; format: ADME, organism-based; design: dose 1 mg/kg, time < 24 hrs, route po; details: in vivo
[12] = Clearance in Sprague-Dawley rat at 1 mg/kg, iv measured up to 24 hrs by LC-MS/MS analysis; format: ADME, organism-based; details: in vivo
[13] = target: Glycogen synthase kinase-3 beta (Homo sapiens, UniProt P49841); test: Inhibition of GSK3beta (unknown origin) at 1000 nM relative to control
[14] = target: High affinity nerve growth factor receptor (Homo sapiens, UniProt P04629); test: Inhibition of TRKA (unknown origin) at 1000 nM relative to control
[15] = target: Mitogen-activated protein kinase 8 (Homo sapiens, UniProt P45983); test: Inhibition of JNK1 (unknown origin) at 1000 nM relative to control
Homo sapiens = species on record: Homo sapiens; test: Selectivity index, ratio of IC50 for human JAK3 to IC50 for human JAK2
[16] = target: RAC-alpha serine/threonine-protein kinase (Homo sapiens, UniProt P31749); test: Inhibition of AKT1 (unknown origin) at 1000 nM relative to control
[17] = target: Aurora kinase C (Homo sapiens) (UniProt Q9UQB9); test: Inhibition of AURC (unknown origin) at 1000 nM relative to control
[18] = target: Calcium/calmodulin-dependent protein kinase type II subunit alpha (Homo sapiens, UniProt Q9UQM7); test: Inhibition of CAMK2alpha (unknown origin) at 1000 nM relative to control
[19] = target: Cyclin-dependent kinase 2 (Homo sapiens, UniProt P24941); test: Inhibition of CDK2 (unknown origin) at 1000 nM relative to control
[20] = target: Dual specificity mitogen-activated protein kinase kinase 1 (Homo sapiens, UniProt Q02750); test: Inhibition of MAP2K1 (unknown origin) at 1000 nM relative to control
[21] = target: Serine/threonine-protein kinase Chk1 (Homo sapiens) (UniProt O14757); test: Inhibition of CHK1 (unknown origin) at 1000 nM relative to control
[22] = target: Ribosomal protein S6 kinase beta-1 (Homo sapiens, UniProt P23443); test: Inhibition of p70S6K (unknown origin) at 1000 nM relative to control
[23] = target: Proto-oncogene tyrosine-protein kinase Src (Homo sapiens, UniProt P12931); test: Inhibition of SRC (unknown origin) at 1000 nM relative to control
Ephrin type-A receptor 2 = Ephrin type-A receptor 2 (Homo sapiens, UniProt P29317); test: Inhibition of EphA2 (unknown origin)
Focal adhesion kinase 1 = Focal adhesion kinase 1 (Homo sapiens, UniProt Q05397); test: Inhibition of FAK (unknown origin)
Angiopoietin-1 receptor = Angiopoietin-1 receptor (Homo sapiens, UniProt Q02763); test: Inhibition of TIE2 (unknown origin)
[24] = target: MAP kinase-activated protein kinase 2 (Homo sapiens, UniProt P49137); test: Inhibition of MAPKAPK2 (unknown origin)
[25] = target: Insulin-like growth factor 1 receptor (Homo sapiens, UniProt P08069); test: Inhibition of IGF1R (unknown origin)
[26] = pampa, pH 6.5, 2 h
Description: as §1

[27] = target: RAF proto-oncogene serine/threonine-protein kinase (Homo sapiens, UniProt P04049); test: Inhibition of RAF1 (unknown origin)
[28] = target: Tyrosine-protein kinase ITK/TSK (Homo sapiens, UniProt Q08881); test: Inhibition of ITK (unknown origin)
[29] = target: Mitogen-activated protein kinase kinase kinase 1 (Homo sapiens, UniProt Q13233); test: Inhibition of MAP3K1 (unknown origin)
[30] = target: Tyrosine-protein kinase ZAP-70 (Homo sapiens, UniProt P43403); test: Inhibition of ZAP70 (unknown origin)
[31] = target: Bone morphogenetic protein receptor type-1A (Homo sapiens, UniProt P36894); test: Inhibition of BMPR1A (unknown origin)
[32] = target: Tyrosine-protein kinase CSK (Homo sapiens, UniProt P41240); test: Inhibition of CSK (unknown origin)
[33] = Inhibition of SYK (unknown origin); design: species or system Homo sapiens
[34] = target: Mitogen-activated protein kinase 11 (Homo sapiens, UniProt Q15759); test: Inhibition of P38beta (unknown origin)
[35] = target: Epidermal growth factor receptor (Homo sapiens, UniProt P00533); test: Inhibition of EGFR (unknown origin)
[36] = target: Inhibitor of nuclear factor kappa-B kinase subunit beta (Homo sapiens, UniProt O14920); test: Inhibition of IKKB (unknown origin)
[37] = target: Tyrosine-protein kinase BTK (Homo sapiens, UniProt Q06187); test: Inhibition of BTK (unknown origin)
Cytochrome P450 3A4 = Cytochrome P450 3A4 (Homo sapiens, UniProt P08684); details: microsomes, 20 min, 5 µM
[38] = target: Tyrosine-protein kinase ABL1 (Homo sapiens, UniProt P00519); test: Inhibition of ABL (unknown origin)
[39] = target: Casein kinase I isoform delta (Homo sapiens, UniProt P48730); test: Inhibition of CHKdelta (unknown origin)

Tyrosine-protein kinase Lck (Homo sapiens), sequence (P06239 2-509 limits assumed): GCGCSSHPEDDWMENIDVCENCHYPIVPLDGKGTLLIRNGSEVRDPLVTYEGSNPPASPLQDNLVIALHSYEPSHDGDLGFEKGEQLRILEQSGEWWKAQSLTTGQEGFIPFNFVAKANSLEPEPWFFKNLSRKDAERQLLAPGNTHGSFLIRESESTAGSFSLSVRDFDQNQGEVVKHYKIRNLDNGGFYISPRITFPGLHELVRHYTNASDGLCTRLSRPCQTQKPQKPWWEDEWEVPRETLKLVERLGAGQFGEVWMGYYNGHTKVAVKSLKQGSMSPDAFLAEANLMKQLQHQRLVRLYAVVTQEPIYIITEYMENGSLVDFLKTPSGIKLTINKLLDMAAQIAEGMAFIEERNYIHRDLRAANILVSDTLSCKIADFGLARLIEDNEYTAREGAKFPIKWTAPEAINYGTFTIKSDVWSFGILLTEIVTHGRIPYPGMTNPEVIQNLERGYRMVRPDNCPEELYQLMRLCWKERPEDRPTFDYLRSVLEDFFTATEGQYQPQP
Rho-associated protein kinase 1 (Homo sapiens), sequence (Q13464 2-1354 limits assumed): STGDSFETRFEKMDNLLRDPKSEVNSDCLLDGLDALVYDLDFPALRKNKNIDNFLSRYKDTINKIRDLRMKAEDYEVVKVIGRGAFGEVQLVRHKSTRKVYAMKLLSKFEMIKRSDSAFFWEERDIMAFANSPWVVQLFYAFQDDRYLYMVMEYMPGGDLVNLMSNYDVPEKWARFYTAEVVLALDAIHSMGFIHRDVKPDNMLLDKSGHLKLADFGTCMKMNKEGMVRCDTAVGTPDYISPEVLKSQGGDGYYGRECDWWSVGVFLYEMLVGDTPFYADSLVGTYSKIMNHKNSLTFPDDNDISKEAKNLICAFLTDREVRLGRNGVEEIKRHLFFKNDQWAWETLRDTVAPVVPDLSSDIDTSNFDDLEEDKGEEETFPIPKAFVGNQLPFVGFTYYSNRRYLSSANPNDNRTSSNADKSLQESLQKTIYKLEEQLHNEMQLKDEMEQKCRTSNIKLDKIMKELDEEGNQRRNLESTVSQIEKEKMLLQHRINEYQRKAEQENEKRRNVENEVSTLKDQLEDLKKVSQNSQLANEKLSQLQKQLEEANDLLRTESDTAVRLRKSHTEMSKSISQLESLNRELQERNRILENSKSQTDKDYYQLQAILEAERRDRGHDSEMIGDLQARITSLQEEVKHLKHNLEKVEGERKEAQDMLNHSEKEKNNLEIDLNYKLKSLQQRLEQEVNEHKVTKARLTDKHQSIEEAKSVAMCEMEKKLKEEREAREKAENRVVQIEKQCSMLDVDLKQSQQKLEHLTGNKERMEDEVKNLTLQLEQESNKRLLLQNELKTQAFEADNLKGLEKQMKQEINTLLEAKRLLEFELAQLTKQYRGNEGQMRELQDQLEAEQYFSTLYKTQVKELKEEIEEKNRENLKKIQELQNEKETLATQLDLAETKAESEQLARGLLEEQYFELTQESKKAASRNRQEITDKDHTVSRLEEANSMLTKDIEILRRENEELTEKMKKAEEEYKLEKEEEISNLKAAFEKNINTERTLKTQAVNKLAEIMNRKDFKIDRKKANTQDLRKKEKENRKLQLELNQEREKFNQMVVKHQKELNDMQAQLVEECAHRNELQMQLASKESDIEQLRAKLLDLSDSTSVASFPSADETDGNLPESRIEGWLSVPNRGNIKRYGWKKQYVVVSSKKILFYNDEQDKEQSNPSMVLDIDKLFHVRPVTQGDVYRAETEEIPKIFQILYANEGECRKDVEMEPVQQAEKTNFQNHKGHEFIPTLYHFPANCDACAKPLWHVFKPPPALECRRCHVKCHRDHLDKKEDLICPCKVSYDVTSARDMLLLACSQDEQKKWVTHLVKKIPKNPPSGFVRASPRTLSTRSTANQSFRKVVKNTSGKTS
Mitogen-activated protein kinase kinase kinase 1, sequence (Q13233 whole entry): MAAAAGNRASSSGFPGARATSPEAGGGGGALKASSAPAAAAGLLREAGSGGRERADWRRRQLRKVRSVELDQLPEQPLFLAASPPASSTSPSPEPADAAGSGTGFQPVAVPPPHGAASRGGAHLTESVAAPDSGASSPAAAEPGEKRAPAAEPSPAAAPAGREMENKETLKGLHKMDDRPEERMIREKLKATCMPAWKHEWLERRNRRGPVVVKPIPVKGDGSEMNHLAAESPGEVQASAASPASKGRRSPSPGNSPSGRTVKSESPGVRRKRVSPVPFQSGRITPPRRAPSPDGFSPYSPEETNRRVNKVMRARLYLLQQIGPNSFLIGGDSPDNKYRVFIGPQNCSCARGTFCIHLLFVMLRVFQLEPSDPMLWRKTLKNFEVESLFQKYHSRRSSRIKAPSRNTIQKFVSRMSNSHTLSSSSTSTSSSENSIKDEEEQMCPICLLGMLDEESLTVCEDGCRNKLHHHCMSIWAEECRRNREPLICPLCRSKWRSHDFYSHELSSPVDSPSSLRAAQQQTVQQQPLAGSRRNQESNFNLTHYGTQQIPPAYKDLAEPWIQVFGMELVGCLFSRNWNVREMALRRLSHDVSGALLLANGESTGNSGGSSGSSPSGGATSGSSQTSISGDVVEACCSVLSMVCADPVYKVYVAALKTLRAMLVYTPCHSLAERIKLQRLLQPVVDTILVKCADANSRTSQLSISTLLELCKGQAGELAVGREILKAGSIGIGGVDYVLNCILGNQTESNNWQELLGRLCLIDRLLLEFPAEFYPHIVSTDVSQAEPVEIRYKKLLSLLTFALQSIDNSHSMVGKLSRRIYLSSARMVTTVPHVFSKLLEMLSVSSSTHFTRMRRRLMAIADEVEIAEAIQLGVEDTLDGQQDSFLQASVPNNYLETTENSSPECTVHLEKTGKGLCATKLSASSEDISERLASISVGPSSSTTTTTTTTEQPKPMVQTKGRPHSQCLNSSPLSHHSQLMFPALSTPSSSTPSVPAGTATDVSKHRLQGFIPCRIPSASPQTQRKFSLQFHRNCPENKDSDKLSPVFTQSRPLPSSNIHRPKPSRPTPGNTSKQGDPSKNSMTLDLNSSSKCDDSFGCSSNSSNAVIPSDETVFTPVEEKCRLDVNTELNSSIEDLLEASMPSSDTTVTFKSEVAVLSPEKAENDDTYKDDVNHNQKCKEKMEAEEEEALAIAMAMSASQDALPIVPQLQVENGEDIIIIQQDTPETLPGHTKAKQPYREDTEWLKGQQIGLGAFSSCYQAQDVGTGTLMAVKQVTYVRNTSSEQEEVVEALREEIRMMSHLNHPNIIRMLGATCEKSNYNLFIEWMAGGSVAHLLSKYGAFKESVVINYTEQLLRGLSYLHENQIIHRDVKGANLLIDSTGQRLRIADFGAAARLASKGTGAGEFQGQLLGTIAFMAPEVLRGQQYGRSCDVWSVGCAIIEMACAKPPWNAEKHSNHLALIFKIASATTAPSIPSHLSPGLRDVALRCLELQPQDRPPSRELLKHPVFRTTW
RAF proto-oncogene serine/threonine-protein kinase, sequence (P04049 whole entry): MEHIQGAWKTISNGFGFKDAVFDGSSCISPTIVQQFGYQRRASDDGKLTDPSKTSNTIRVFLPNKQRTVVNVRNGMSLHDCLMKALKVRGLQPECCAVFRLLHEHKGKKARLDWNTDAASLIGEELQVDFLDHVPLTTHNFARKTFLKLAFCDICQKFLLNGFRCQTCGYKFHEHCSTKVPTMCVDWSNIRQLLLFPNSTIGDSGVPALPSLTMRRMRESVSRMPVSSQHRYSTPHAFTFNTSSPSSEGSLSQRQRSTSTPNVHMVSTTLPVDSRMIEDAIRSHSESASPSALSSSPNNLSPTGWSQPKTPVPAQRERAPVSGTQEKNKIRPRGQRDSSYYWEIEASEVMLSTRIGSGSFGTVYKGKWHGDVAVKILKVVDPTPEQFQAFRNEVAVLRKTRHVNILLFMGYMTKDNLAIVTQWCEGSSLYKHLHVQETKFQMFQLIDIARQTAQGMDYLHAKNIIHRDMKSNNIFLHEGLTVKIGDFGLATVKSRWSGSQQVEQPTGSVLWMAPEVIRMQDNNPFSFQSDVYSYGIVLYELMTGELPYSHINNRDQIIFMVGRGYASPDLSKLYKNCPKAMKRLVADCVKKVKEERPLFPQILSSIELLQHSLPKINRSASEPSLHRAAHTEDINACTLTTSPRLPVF
Mitogen-activated protein kinase 11, sequence (Q15759 whole entry): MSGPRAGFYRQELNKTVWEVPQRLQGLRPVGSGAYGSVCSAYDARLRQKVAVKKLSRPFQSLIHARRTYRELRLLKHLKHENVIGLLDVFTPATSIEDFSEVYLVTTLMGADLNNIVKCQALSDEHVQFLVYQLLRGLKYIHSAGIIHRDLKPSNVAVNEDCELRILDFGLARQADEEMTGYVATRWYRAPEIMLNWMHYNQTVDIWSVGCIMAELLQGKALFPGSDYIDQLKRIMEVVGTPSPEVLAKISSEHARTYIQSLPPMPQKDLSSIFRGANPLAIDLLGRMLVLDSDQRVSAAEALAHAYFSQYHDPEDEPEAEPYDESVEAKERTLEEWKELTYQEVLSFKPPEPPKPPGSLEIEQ

SMILES: C[C@@H]1CCN(C(=O)CC#N)C[C@@H]1n1ccc2cnc3[nH]ccc3c21
inhibition [1]: 75% | inhibition [2]: 55% | inhibition [3]: 67%

inhibition at 20 min, 5 µM (CYP3A4): 90% | bioavailability [4]: 11.2% | AUC(0-t) at 24 h [5]: 148 ng·h/mL | Vd [6]: 3.62 L/kg | half-life [7]: 11.8 h | Cmax [8]: 2.98 ng/mL | half-life [9]: 1.13 h | Papp at 2 h (in vitro): < 0.7 ×10⁻⁶ cm/s | Tmax [10]: 0.25 h | AUC(0-t) at 24 h [11]: 11.8 ng·h/mL | clearance [12]: 113 mL/min/kg
SMILES: C[C@@H]1CCN(C(=O)CC#N)C[C@@H]1n1c(=O)[nH]c2cnc3[nH]ccc3c21 (racemic)

inhibition [13]: 92% | inhibition [14]: 67% | inhibition [15]: 59% | Ratio IC50 (Homo sapiens): 10 | inhibition [1]: 75% | inhibition [16]: 80% | inhibition [2]: 88% | inhibition [17]: 77% | inhibition [18]: 54% | inhibition [19]: 91% | inhibition [3]: 98% | inhibition [20]: 90% | inhibition [21]: 59% | inhibition [22]: 78% | inhibition [23]: 51%
SMILES: C[C@@H]1CCN(C(=O)CC#N)C[C@@H]1n1ccc2cnc3[nH]cc(C#N)c3c21 [listing 1 of 2 here]

IC50 (Ephrin type-A receptor 2): > 1000 nM | IC50 (Focal adhesion kinase 1): > 1000 nM | IC50 (Angiopoietin-1 receptor): > 1000 nM | bioavailability [4]: 82.4% | IC50 [24]: > 1000 nM | IC50 [25]: > 1000 nM | permeability [26]: 14 10^-6 cm/s | IC50 [27]: > 1000 nM | AUC(0-t) at 24 h [5]: 1110 ng·h/mL | Vd [6]: 0.97 L/kg | half-life [7]: 3.99 h | Cmax [8]: 178 ng/mL | IC50 [28]: > 1000 nM | half-life [9]: 7.86 h | IC50 [29]: > 1000 nM | IC50 [30]: > 1000 nM | IC50 [31]: > 1000 nM | IC50 [32]: > 1000 nM | IC50 [33]: > 1000 nM | IC50 [34]: > 1000 nM | Tmax [10]: 0.33 h | IC50 [35]: > 1000 nM | AUC(0-t) at 24 h [11]: 916 ng·h/mL | IC50 [36]: > 1000 nM | clearance [12]: 20.2 mL/min/kg | IC50 [37]: > 1000 nM | TDI (Cytochrome P450 3A4): 93% | IC50 [38]: > 1000 nM | IC50 [39]: > 1000 nM
SMILES: C[C@@H]1CCN(C(=O)CC#N)C[C@@H]1n1ccc2cnc3[nH]cc(C#N)c3c21 [listing 2 of 2 here]
